Data taken from patent US11919908B2, “Substituted pyrrolo[2,3-d]pyrimidine compounds as JAK2 V617F inhibitors” (Incyte Corporation, priority 2020, dated 2024).

Experiments:
[1] = target: T1, pseudo-kinase domain (JH2) of human V617F mutant JAK2 (Homo sapiens, UniProt O60674, F794H/V617F/W659A/W777A); experiment: JAK2 LanthaScreen JH2-V617F Binding Assay; settings: 50 nM Fluorescent JAK2-JH2 Tracer, 1 hour at 25° C.
T1 construct: pseudo-kinase domain (JH2, amino-acids 536-812 with 3 surface mutations W659A, W777A, F794H); His (C); purchased BPS Bioscience 79498; host or cells: baculovirus expression system
T1 sequence (O60674 536-812 V617F/W659A/W777A/F794H): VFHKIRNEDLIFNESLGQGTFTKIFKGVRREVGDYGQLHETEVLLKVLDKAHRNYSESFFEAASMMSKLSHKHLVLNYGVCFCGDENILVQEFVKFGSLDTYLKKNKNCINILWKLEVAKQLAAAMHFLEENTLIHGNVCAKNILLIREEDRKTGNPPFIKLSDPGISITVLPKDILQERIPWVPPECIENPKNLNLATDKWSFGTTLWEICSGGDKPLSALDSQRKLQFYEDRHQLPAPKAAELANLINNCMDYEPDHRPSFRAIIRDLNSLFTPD
Protocol: (§1) Example C. JAK2 LanthaScreen JH2-V617F Binding Assay JAK2 JH2-V617F binding assay utilizes pseudo-kinase domain (JH2, amino-acids 536-812 with 3 surface mutations […]) of human V617F mutant JAK2 expressed as C-terminal His-Avi-tagged, biotinylated protein in a baculovirus expression system (BPS Bioscience, Catalog #79498). The assay was conducted in black 384-well polystyrene plates in a final reaction volume of 20 μL. JAK2 JH2-V617F (0.26 nM) was incubated with compounds (100 nL serially diluted in DMSO) in the presence of 50 nM Fluorescent JAK2-JH2 Tracer (MedChem Express Catalog #HY-102055) and 0.25 nM Streptavidin-Tb cryptate (Cisbio Part #610SATLB) in assay buffer (50 mM Tris, pH=7.5, 10 mM MgCl2, 0.01% Brij-35, 0.1% BSA, 1 mM EGTA, 5% Glycerol and 5 mM DTT). Non-specific binding was accessed in the presence of 2 mM ATP. After incubation for 1 hour at 25° C., LanthaScreen signals were read on a PHERAstar FS plate reader (BMG LABTECH). Data was analyzed with IDBS XLfit and GraphPad Prism 5.0 software using a four parameter dose response curve to determine IC50 for each compound.

[2] = target: T2, pseudo-kinase domain (JH2) of human Wild Type JAK2 (Homo sapiens, UniProt O60674, F794H/W659A/W777A); experiment: JAK2 LanthaScreen JH2-WT Binding Assay; settings: 50 nM Fluorescent JAK2-JH2 Tracer, 1 hour at 25° C.
T2 construct: pseudo-kinase domain (JH2, amino-acids 536-812 with 3 surface mutations W659A, W777A, F794H); His (C); purchased BPS Bioscience 79463; host or cells: baculovirus expression system
T2 sequence (O60674 536-812 W659A/W777A/F794H): as the sequence (O60674 536-812 V617F/W659A/W777A/F794H) above, with F82V counted along it
Protocol: as §1, with “Example B.” for “Example C.”, “LanthaScreen JH2-WT” for “LanthaScreen JH2-V617F”, “JAK2 JH2-WT” for “JAK2 JH2-V617F”, “human Wild Type” for “human V617F mutant”, “Catalog #79463).” for “Catalog #79498).”, “JAK2 JH2-WT (0.145” for “JAK2 JH2-V617F (0.26”

[3] = target: T3, catalytic domain (JH1) of human JAK2 (Homo sapiens, UniProt O60674); experiment: JAK2 LanthaScreen JH1 Binding Assay; settings: 50 nM Fluorescent JAK2-JH1 Tracer, 2 hours at 25° C.
T3 construct: catalytic domain (JH1, amino acids 826-1132) of human JAK2; FLAG (N); purchased Carna Biosciences 08-445-20N; host or cells: baculovirus expression system
T3 sequence (O60674 826-1132): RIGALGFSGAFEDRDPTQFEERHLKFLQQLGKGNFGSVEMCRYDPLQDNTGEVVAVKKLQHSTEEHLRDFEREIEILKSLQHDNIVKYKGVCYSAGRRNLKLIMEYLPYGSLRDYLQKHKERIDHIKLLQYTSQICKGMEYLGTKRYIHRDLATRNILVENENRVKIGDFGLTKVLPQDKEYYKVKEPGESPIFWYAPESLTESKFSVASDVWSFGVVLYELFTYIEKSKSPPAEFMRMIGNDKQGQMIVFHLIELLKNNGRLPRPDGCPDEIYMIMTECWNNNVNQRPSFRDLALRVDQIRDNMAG
Protocol: Example A. JAK2 LanthaScreen […] Binding Assay JAK2 JH1 binding assay utilizes catalytic domain (JH1, amino acids 826-1132) of human JAK2 expressed as N-terminal FLAG-tagged, biotinylated protein in a baculovirus expression system (Carna Biosciences, Product #08-445-20N). The assay was conducted in black 384-well polystyrene plates in a final reaction volume of 20 μL. JAK2 JH1 (1.5 nM) was incubated with compounds (100 nL serially diluted in DMSO) in the presence of 50 nM Fluorescent JAK2-JH1 Tracer and 0.5 nM Streptavidin-Tb cryptate (Cisbio Part #610SATLB) in assay buffer (50 mM Tris, pH=7.5, 10 mM MgCl2, 0.01% Brij-35, 0.1% BSA, 1 mM EGTA, 5% Glycerol and 5 mM DTT). Non-specific binding was accessed in the presence of 2 mM ATP. After incubation for 2 hours at 25° C., LanthaScreen signals were read on a PHERAstar FS plate reader (BMG LABTECH). Data was analyzed with IDBS XLfit and GraphPad Prism 5.0 software using a four parameter dose response curve to determine IC50 for each compound.

IC50 [1] | IC50 [2] | IC50 [3] | SMILES
1000 to 2500 nM | > 2500 nM | > 2500 nM | CN(C)S(=O)(=O)c1ccc(-c2[nH]c3nc(N)[nH]c(=O)c3c2-c2cnn(C3CCOCC3)c2)cc1 [Example 37, 4-(2-Amino-4-oxo-5-(1-(tetrahydro-2H-pyran-4-yl)-1H-pyrazol-4-yl)-4,7-dihydro-3H-pyrrolo[2,3-d]pyrimidin-6-yl)-N,N-dimethylbenzene sulfonamide]
100 to 500 nM | 100 to 500 nM | 500 to 1000 nM | CN(C)S(=O)(=O)c1ccc(-c2[nH]c3nc(N)[nH]c(=O)c3c2-c2ccccc2)cc1 [Example 38, 4-(2-Amino-4-oxo-5-phenyl-4,7-dihydro-3H-pyrrolo[2,3-d]pyrimidin-6-yl)-N,N-dimethylbenzene sulfonamide]
1000 to 2500 nM | 500 to 1000 nM | > 2500 nM | CN(C)S(=O)(=O)c1ccc(-c2[nH]c3nc(N)[nH]c(=O)c3c2-c2ccc(C#N)cc2)cc1 [Example 39, 4-(2-Amino-5-(4-cyanophenyl)-4-oxo-4,7-dihydro-3H-pyrrolo[2,3-d]pyrimidin-6-yl)-N,N-dimethylbenzene sulfonamide]
> 2500 nM | > 2500 nM | > 2500 nM | COc1c(Cl)cccc1-c1c(-c2ccc(S(=O)(=O)N(C)C)cc2)[nH]c2nc(N)[nH]c(=O)c12 [Example 40, 4-(2-Amino-5-(3-chloro-2-methoxyphenyl)-4-oxo-4,7-dihydro-3H-pyrrolo[2,3-d]pyrimidin-6-yl)-N,N-dimethylbenzene sulfonamide]
100 to 500 nM | 100 to 500 nM | > 2500 nM | CN(C)S(=O)(=O)c1ccc(-c2[nH]c3nc(N)[nH]c(=O)c3c2-c2cccc3c2OCC3)cc1 [Example 41, 4-(2-Amino-5-(2,3-dihydrobenzofuran-7-yl)-4-oxo-4,7-dihydro-3H-pyrrolo[2,3-d]pyrimidin-6-yl)-N,N-dimethylbenzene sulfonamide]
500 to 1000 nM | 500 to 1000 nM | > 2500 nM | COc1ccc(-c2c(-c3ccc(S(=O)(=O)N(C)C)cc3)[nH]c3nc(N)[nH]c(=O)c23)c(OC)c1 [Example 42, 4-(2-Amino-5-(2,4-dimethoxyphenyl)-4-oxo-4,7-dihydro-3H-pyrrolo[2,3-d]pyrimidin-6-yl)-N,N-dimethylbenzene sulfonamide]
1000 to 2500 nM | 1000 to 2500 nM | > 2500 nM | COc1cccc(-c2c(-c3ccc(S(=O)(=O)N(C)C)cc3)[nH]c3nc(N)[nH]c(=O)c23)c1OC [Example 43, 4-(2-Amino-5-(2,3-dimethoxyphenyl)-4-oxo-4,7-dihydro-3H-pyrrolo[2,3-d]pyrimidin-6-yl)-N,N-dimethylbenzene sulfonamide]
100 to 500 nM | 100 to 500 nM | > 2500 nM | CN(C)S(=O)(=O)c1ccc(-c2[nH]c3nc(N)[nH]c(=O)c3c2-c2cccc3c2OCO3)cc1 [Example 44, 4-(2-Amino-5-(benzo[d] [1,3]dioxol-4-yl)-4-oxo-4,7-dihydro-3H-pyrrolo[2,3-d]pyrimidin-6-yl)-N,N-dimethylbenzene sulfonamide]
> 2500 nM | 1000 to 2500 nM | > 2500 nM | CN(C)S(=O)(=O)c1ccc(-c2[nH]c3nc(N)[nH]c(=O)c3c2-c2cccc(CN)c2)cc1 [Example 45, 4-(2-Amino-5-(3-(aminomethyl)phenyl)-4-oxo-4,7-dihydro-3H-pyrrolo[2,3-d]pyrimidin-6-yl)-N,N-dimethylbenzenesulfonamide]
> 2500 nM | > 2500 nM | > 2500 nM | CN(C)S(=O)(=O)c1ccc(-c2[nH]c3nc(N)[nH]c(=O)c3c2-c2ccnn2C)cc1 [Example 46, 4-(2-Amino-5-(1-methyl-1H-pyrazol-5-yl)-4-oxo-4,7-dihydro-3H-pyrrolo[2,3-d]pyrimidin-6-yl)-N,N-dimethylbenzenesulfonamide]
100 to 500 nM | 100 to 500 nM | 100 to 500 nM | CN(C)S(=O)(=O)c1ccc(-c2[nH]c3nc(N)[nH]c(=O)c3c2C2=CCCC2)cc1 [Example 47, 4-(2-Amino-5-(cyclopent-1-en-1-yl)-4-oxo-4,7-dihydro-3H-pyrrolo[2,3-d]pyrimidin-6-yl)-N,N-dimethylbenzenesulfonamide]
100 to 500 nM | 100 to 500 nM | > 2500 nM | CN(C)S(=O)(=O)c1ccc(-c2[nH]c3nc(N)[nH]c(=O)c3c2-c2cccc3c2OCC(=O)N3)cc1 [Example 48, 4-(2-Amino-4-oxo-5-(3-oxo-3,4-dihydro-2H-benzo[b][1,4]oxazin-8-yl)-4,7-dihydro-3H-pyrrolo[2,3-d]pyrimidin-6-yl)-N,N-dimethylbenzenesulfonamide]
500 to 1000 nM | 500 to 1000 nM | > 2500 nM | CN(C)S(=O)(=O)c1ccc(-c2[nH]c3nc(N)[nH]c(=O)c3c2-c2cccc3c2OCCN3)cc1 [Example 49, 4-(2-Amino-5-(3,4-dihydro-2H-benzo[b][1,4]oxazin-8-yl)-4-oxo-4,7-dihydro-3H-pyrrolo[2,3-d]pyrimidin-6-yl)-N,N-dimethylbenzenesulfonamide]
≤ 100 nM | ≤ 100 nM | > 2500 nM | COc1nn(Cc2ccc(C(=O)O)cc2)cc1-c1c(-c2ccc(S(=O)(=O)N(C)C)cc2)[nH]c2nc(N)[nH]c(=O)c12 [Example 50]
500 to 1000 nM | 500 to 1000 nM | 1000 to 2500 nM | CN(C)S(=O)(=O)c1ccc(-c2[nH]c3nc(N)[nH]c(=O)c3c2-c2cnn(Cc3cccc(C(=O)O)c3)c2)cc1 [Example 51, 3-((4-(2-amino-6-(4-(N,N-dimethylsulfamoyl)phenyl)-4-oxo-4,7-dihydro-3H-pyrrolo[2,3-d]pyrimidin-5-yl)-1H-pyrazol-1-yl)methyl)benzoic acid]
100 to 500 nM | 100 to 500 nM | > 2500 nM | CN(C)S(=O)(=O)c1ccc(-c2[nH]c3nc(N)[nH]c(=O)c3c2-c2cnn(Cc3ccc(C(=O)O)cc3)c2)cc1 [Example 52, 4-((4-(2-amino-6-(4-(N,N-dimethylsulfamoyl)phenyl)-4-oxo-4,7-dihydro-3H-pyrrolo[2,3-d]pyrimidin-5-yl)-1H-pyrazol-1-yl)methyl)benzoic acid]
100 to 500 nM | 100 to 500 nM | > 2500 nM | COc1ccccc1-c1c(-c2ccc(CN3CCC(S(C)(=O)=O)CC3)cc2)[nH]c2nc(N)[nH]c(=O)c12 [Example 53]
500 to 1000 nM | 500 to 1000 nM | > 2500 nM | COc1ccccc1-c1c(-c2ccc(C(=O)N3CCOCC3)cc2)[nH]c2nc(N)[nH]c(=O)c12 [Example 54, 2-Amino-5-(2-methoxyphenyl)-6-(4-(morpholine-4-carbonyl)phenyl)-3,7-dihydro-4H-pyrrolo[2,3-d]pyrimidin-4-one]
> 2500 nM | > 2500 nM | > 2500 nM | CCc1c(-c2ccccc2)[nH]c2nc(N)[nH]c(=O)c12 [Example 55, 2-Amino-5-ethyl-6-phenyl-3,7-dihydro-4H-pyrrolo[2,3-d]pyrimidin-4-one]
